The subject of one data set is Panc-02 tumor cells. In words: Cytotoxicity after 4 h co-incubation, MTT test. It is filed as cell-based, mouse. The note with it: Panc-02 cells, at concentrations of more than 80 μM. As for the experimental part:
The mechanisms underlying the cytotoxicity of the Gem-DHA may be different from that of gemcitabine. For example, in cell culture studies, Panc-02 cells were seeded into 96-well plates (1,500 cells per well) and incubated at 37° C., 5% CO2 for 24 h. They were then co-incubated with various concentrations of Gem-DHA, gemcitabine HCl alone, or DHA alone for 4 h, and cell viability was determined using an MTT test.
(Tetrazolium dyes change colour on reduction, which living cells bring about.)

For a further data set, the system named is Panc-02 tumors. The data set can be described thus: Antitumor activity against s.c. Panc-02 tumors in C57BL/6 mice. It is filed as in vivo. The note with it: i.p., ~0.1 mmole/kg, twice a week, up to 6 doses. On the procedure:
Therefore, the in vivo anti-tumor activity of Gem-DHA was also evaluated and compared to that of DHA alone in male C57BL/6 mice (6-8 weeks, Charles River) with subcutaneously (s.c.)
implanted Panc-02 tumors. Briefly, 1×10^6 cells were s.c. injected in the right flank of mice. Sixteen days later, mice were randomized into groups (n=12) and i.p. injected with Gem-DHA (˜55 mg/kg, […]) or DHA (˜33 mg/kg, ˜0.1 mmole/kg). Mice in the control group were i.p. injected with sterile 5% mannitol (w/v). Gem-DHA and DHA was dissolved in a Tween 80/ethanol/water solution with 5% (w/v) of mannitol. The doses were based on the average weight of mice in the same group on the first day of injection. The treatment was repeated twice a week for up to 6 doses. Tumor growth was monitored using a digital caliper, and tumor volume was calculated based on the longest diameter (L1) and the shortest diameter (L2) of each tumor using the equation of V=½×(L1×L2×L2).

The subject of another data set is MIA PaCa-2 cells. In words: Cytotoxicity of Gem-ARA, MTT assay, MIA PaCa-2 cells. It is filed as cell-based, human. The following applies: up to 72 h, mean ± SD (n>3). On the procedure: (§1) To understand the effect of the omega-3 polyunsaturated fatty acid nature of the DHA (i.e., the docosahexaedecanoyl group) in the Gem-DHA on its cytotoxicity against tumor cells, gemcitabine was also conjugated to arachidonic acid, an omega-6 polyunsaturated fatty acid, to synthesize 4-(N)-arachidonyl gemcitabine (Gem-ARA) (FIG. 4). Human pancreatic cancer cells (MIA PaCa-2 or BxPC-3) were seeded (3,000/well) in 96-well plates. After overnight incubation, cells were treated with various concentrations of gemcitabine HCl or Gem-ARA at 37° C., 5% CO2 for up to 72 h. Gemcitabine HCl was dissolved in phosphate buffered saline (PBS, pH 7.4, 10 mM), and Gem-ARA was dissolved in DMSO. The maximum amount of DMSO added per well was 0.9 μL, which was found non-toxic. The number of viable cells after the incubation was determined using an MTT assay as described above. The 50% inhibition concentration (IC50) values were estimated using GraphPad prism 5 parameters curve fittings.

A further data set deals with BxPC-3 cells. The data set can be described thus: Cytotoxicity of Gem-ARA, MTT assay, BxPC-3 cells. The format is cell-based, human. The following applies: up to 72 h, mean ± SD (n>3). On the procedure: as §1
For data set [1], the system named is advanced pancreatic cancer. The note with it: in combination with gemcitabine; cited from earlier work.
A short description of data set [2]: Aqueous solubility by the indirect method (IPM/water partitioning, Beall et al.). The note with it: mean ± SD (n=3). The format is physicochemical. On the procedure:
The aqueous solubility of Gem-DHA was determined following an indirect method according to Beall et al. with minimal modifications (Beall HD et al. International Journal of Pharmaceutics. 1993, 93, 37-47). Briefly, an excess amount of Gem-DHA was added to 100 μl of IPM in a crimp-sealed amber glass vials under nitrogen and was stirred vigorously at room temperature for 24 h, protected from light. After the stirring was stopped, the mixture was left to stand for an additional 24 h for equilibration. The content of the vial was centrifuged (14,000 rpm, 10 min) and the supernatant was transferred into a different tube. Aliquots of the saturated IPM solution were used to measure the Gem-DHA concentration before partitioning (A1) using HPLC (after proper dilution with methanol). Then, water was added to the IPM saturated solution in a volume ratio of 10:1. The two phases were mixed by vortexing for 5 min, left to stand for 15 min, then centrifuged (14,000 rpm, 15 min) to collect the IPM layer. Gem-DHA concentration in the IPM layer (A2) was again measured using HPLC after partitioning. The following equation was used to calculate the partition coefficient (KIPM/water) (Beall HD et al. International Journal of Pharmaceutics. 1993, 93, 37-47):
[formula] where Vwater is the volume of the water phase and VIPM is the volume of IPM. The value of (Vwater/VIPM) was 10.
The aqueous solubility (Sw) of Gem-DHA was determined using the following equation (Id.):
[formula] where SIPM is the solubility of Gem-DHA in IPM.
(§2) In order to validate the method of Beall et al. (Id.), the aqueous solubility of 4-(N)-stearoyl gemcitabine, another lipophilic gemcitabine conjugate (Sloat BR et al. Int J Pharm. 2011, 409(1-2), 278-288), which is stable in water, was measured directly (i.e., direct method) or using the indirect method reported by Beall et al. (Beall HD et al. International Journal of Pharmaceutics. 1993, 93, 37-47).

Data set [3] deals with MIA PaCa-2, Panc-1 cells, CCRF-CEM, B16-F10, and TC-1. The note with it: various tumor cell lines in culture; cited from earlier work.
The nature of data set [4]: Aqueous solubility measured directly (direct method). The format is physicochemical. The note with it: mean ± SD (n=3). On the procedure: as §2
The test system of another data set is pre-established tumors. The note with it: solubilized in a Tween 80 solution; cited from earlier work.
Data set [5] has as its system NCI-56 human tumor cell lines. The following applies: cited from earlier work.

Molecules are shown by their SMILES.

The term IC50 denotes the concentration that inhibits the measured activity by half. A low value points to greater potency.

Turning to `CC/C=C\C/C=C\C/C=C\C/C=C\C/C=C\C/C=C\CCC(=O)O` [DHA, Cis-4,7,10,13,16,19-docosahexaenoic acid, reference compound], the “Cytotoxicity after 4 h of co-incubation” value with Panc-02 tumor cells is on record as “did not show any significant cytotoxicity”. The “Inhibition of Panc-02 tumor growth” value with Panc-02 tumors is “did not significantly inhibit the tumor growth”.
`CCCCC/C=C\C/C=C\C/C=C\C/C=C\CCCC(=O)Nc1ccn([C@@H]2O[C@H](CO)[C@@H](O)C2(F)F)c(=O)n1` [Gem-ARA, 4-(N)-Arachidonoyl Gemcitabine]: the IC50 with MIA PaCa-2 cells stood at 64.3 ± 42.7 nM; with BxPC-3 cells, 1.93 ± 3.8 nM.
As for `C#Cc1cccc(Nc2ncnc3cc(OCCOC)c(OCCOC)cc23)c1` [erlotinib], the “Prolongation of median survival” value in data set [1] was 10 days.
For `CCCCCCCCCCCCCCCCCC(=O)Nc1ccn([C@@H]2OC(CO)C(O)C2(F)F)c(=O)n1` (some centres unmarked) [Stearoyl gemcitabine, 4-(N)-stearoyl gemcitabine], the “KIPM/water (partition coefficient)” value in [2] (IPM/water, room temperature) was found to be 35.33 ± 2.7. The “Water Solubility, Indirect method” value in [2] (estimated from solubility in IPM and KIPM/water) was 1.39 ± 0.1 µg/mL. In addition, in data set [3], the “Cytotoxicity compared with gemcitabine” value is “less cytotoxic than gemcitabine alone”. Besides, the “Water Solubility, Direct method” value in data set [4] amounted to 1.38 ± 1.6 µg/mL. The “Inhibition of tumor growth compared with gemcitabine” value in the data set with pre-established tumors is listed as “not more active than gemcitabine alone”.
For the compound `CC/C=C\C/C=C\C/C=C\C/C=C\C/C=C\C/C=C/CCC(=O)O[C@@H](C(=O)O[C@H]1C[C@@]2(O)[C@@H](OC(=O)c3ccccc3)C3[C@](C)(C(=O)[C@H](OC(C)=O)C(=C1C)C2(C)C)[C@@H](O)C[C@H]1OC[C@@]31OC(C)=O)[C@@H](NC(=O)c1ccccc1)c1ccccc1` (some centres unmarked) [DHA conjugated to paclitaxel], in [5], the “Effect of DHA conjugation on cytotoxicity” value is reported as “lowers the cytotoxicity of the paclitaxel”.

The record behind these values is patent US11883423B2, “Nucleobase analogue derivatives and their applications” (BOARD OF REGENTS, THE UNIVERSITY OF TEXAS SYSTEM, priority 2014, dated 2024).
